Consider 87 compounds from a melting point compilation (Tetko et al.; mined from patent text by program, amines drawn as free bases though some values may be those of a salt).

In turn, `O=C1CCc2c1cccc2C(=O)c1ccccc1` registered a melting point of 86 to 88 °C.

`Cc1ccc(C2=C(C#N)C(c3cccc4nonc34)c3c[nH]nc3N2)s1` (configuration not stated) came in with a melting point of 192 °C.

As to `COc1ccc(CCCn2ccnc2S)cc1`, the melting point fell in the range of 108 to 109 °C. With `CSC(=N)NS(=O)(=O)CCl` the figure was 60 to 62 °C; with `CCOC(=O)c1sc2ccc(Cl)cc2c1C`, 92.5 to 94 °C. With `Cc1ccc([S@@](C)=O)cc1` the figure was 75 to 76 °C; with `N#CCCn1c2ccccc2c2cc([N+](=O)[O-])ccc21`, 225 °C. With `CC(C)Cn1c(CNC(=O)OC(C)(C)C)c(-c2ccc(Cl)cc2)c2cc(C(N)=O)ccc2c1=O` the figure was 144 to 146 °C. Consider `COc1cc2c(cc1S(C)(=O)=O)nc(C)n2C(C)C`, for which the melting point fell in the range of 161 to 165 °C. With `Cc1cc2c(nc1C(O)c1ccccc1)CCCCC2` (configuration not stated) the figure was 130 to 132 °C; with `COc1cc2c(cc1OC)C(c1ccc([N+](=O)[O-])cc1)=NN(c1ccccn1)[C@H](C)C2`, 210 to 214 °C; with `CC1(C)CC(=O)Nc2c(Br)cc3c(c21)OC(CN=[N+]=[N-])C3` (configuration not stated), 187 to 189 °C. With `CCOC(=O)Oc1ccc(S(=O)(=O)N2c3ccc(Cl)cc3-n3cccc3C2CC)cc1` (configuration not stated) the figure was 117 to 119 °C. With `CN(C)C(=O)c1c(-c2ccc(C(F)(F)F)cc2)ccc2ccccc12` the figure was 184 to 186 °C; with `O=c1cc(-c2ccoc2)c2ccc(S)cc2o1`, 167 to 170 °C; with `COc1cc2nc(N3CCN(C(=O)CC(C)O)CC3)nc(N)c2cc1OC` (configuration not stated), 220 to 222 °C. Take `CC(C)(NC(=O)C(COCc1ccccc1)NC(=O)c1ccccc1)c1ccccc1` (configuration not stated): the melting point is 88 to 90 °C. To `CCN1CCN(c2nc(-c3ccc(O)cc3)cc3ccccc23)CC1` belongs 204 to 206 °C.

Take `Cc1sc(CCc2ccc(CO)cc2)nc1-c1ccccc1`: the melting point is 62 to 63 °C. To `Cc1nc(-c2ccc(OC(F)(F)F)cc2)sc1C(=O)O` belongs 179 to 181 °C; to `O=C1Nc2ccc(-c3ccc(Cl)cc3)cc2C1=NO`, 236 to 237 °C; to `COC1CN(c2ccc(NC(=O)OCc3ccccc3)cc2F)C1`, 95 to 96.5 °C. With `CCOC(=O)CNC1=NS(=O)(=O)c2ccccc21` the figure was 166 to 167 °C.

The compound `CCc1c(C(=O)c2cc(C)cc(C)c2)n(COCc2ccccc2)c(=O)[nH]c1=O` came in with a melting point of 115 to 116 °C. `Cc1c([N+](=O)[O-])c([N+](=O)[O-])c(Cl)c2c1=NC(=O)C(=O)N=2` yielded a melting point of 346 to 348 °C. With `COC(=O)c1sc(S(C)(=O)=O)cc1OCc1ccccc1` the figure was 125 to 126 °C; with `CC(=O)Nc1cc(I)c(-c2cc([N+](=O)[O-])c(NC(C)=O)cc2I)cc1[N+](=O)[O-]`, 296 to 298 °C; with `O=C(O)COc1ccc2c(-c3ccccc3F)noc2c1I`, 178 to 180 °C. With `CN(C)C1(c2ccccc2)CCC(CNC(=O)Oc2ccccc2)CC1` (configuration not stated) the figure was 108 to 124 °C; with `O=S(=O)(O)NCc1ccncc1`, 227 to 228 °C. To `COc1ccc(NC(=O)N2CCCC2=O)cc1` belongs 113 to 114 °C; to `COc1ccc(C(=O)Nc2ccccc2)cc1NCc1cccc(F)c1`, 137 to 140 °C; to `COc1cc(OC)cc(C(=O)N2CCN(C(=O)C3=Cc4cc(OC)c(OC)cc4CC3)CC2)c1`, 166 to 167 °C. For `CNS(=O)(=O)/C=C/c1ccc2[nH]cc(C3CCN(C)CC3)c2c1`, the melting point was 190 to 192 °C.

For `O=C1CNc2ncc(-c3ccc(C(=O)N4CCC[C@H]4CN4CCCC4)cc3)cc2N1Cc1cc(F)ccc1F`, the melting point turned out to be 125 °C. To `CC(C)(C)OC(=O)N1CCCC1C(=O)Nc1cccc(-c2cc(-c3ccccc3O)nc(NC(=O)c3cccs3)c2C#N)c1` (configuration not stated) belongs 167 to 169 °C. To `CC(=O)Nc1nc(CCN2CCC(c3c[nH]c4ccccc34)CC2)cs1` belongs 203 to 204 °C. To `Cn1cc(C2=CCN(CCCn3nnc4ccccc4c3=O)CC2)c2ccccc21` belongs 70 °C; to `O=[N+]([O-])c1ccc(Sc2cc(Cl)cc(Cl)c2)c(S(=O)(=O)NC2CN3CCC2CC3)c1` (configuration not stated), 256 °C.

On to `COc1cc2c(cc1OC(C)=O)C1Cc3c(Cl)cc(OC)c(OC(C)=O)c3CN1CC2` (single isomer, unassigned; (-)), for which the melting point lay in the range of 202 to 203 °C. To `CC(C)(C)C(=O)OCn1c(-c2cnn(-c3c(Cl)cc(C(F)(F)F)cc3Cl)n2)nc(C#N)c1C#N` belongs 103 to 104 °C; to `CCOC(=O)c1cc2c(=O)ccoc2nc1C(=O)OCC`, 71 to 72 °C; to `CC(=O)NC1CCCCC1Sc1ccccc1` (configuration not stated), 132 to 133 °C. With `CN1CC(CN)c2c[nH]c3cccc(c23)C1=O` (configuration not stated) the figure was 85 to 87 °C. Regarding `Cc1nc2ccccc2c(=O)n1CCCl`, the melting point lay in the range of 114 to 116 °C. With `CCCc1nc2c(N)nc(C)c(C)c2n1CCCO/N=C(\C)c1ccccc1`, the melting point was 125 to 127 °C. With `CC(=O)Nc1c(C(=O)c2cc(C)ccn2)[nH]c2cc(Cl)ccc12` the figure was 187 to 188 °C. To `CCCCCCC(C(=O)O)n1c(C(F)(F)F)nc2cc(-c3ccccc3-c3nn[nH]n3)ccc21` (configuration not stated) belongs 128 to 130 °C. For `COc1ccc(C(=O)CCC#N)cc1`, the melting point was determined as 94 °C.

For `CC(C)(C)c1cc(-c2nn(CC(=O)N3CCOCC3)c3ncccc23)cc(C(C)(C)C)c1O`, the melting point lay within 207 to 209 °C. With `CCC(=O)NS(=O)(=O)c1ccc2c3c(cc([N+](=O)[O-])c2c1)NCC3CCl` (configuration not stated) the figure was 173 to 177 °C; with `COc1ccc(-c2ccc(=O)[nH]n2)cc1OC1CC2CCC1C2` (configuration not stated), 188 to 189 °C. In turn, `CCC1(C)CCN(c2ccc([N+](=O)[O-])cc2C(=O)c2ccc(Cl)cc2)CC1` displayed a melting point of 105 °C. To `O=C(COc1ccc(C(=O)C(=O)O)cc1)NC1CCCCCCC1` belongs 139 to 140 °C.

`CC(C)=Nc1c(-c2ccccc2)[nH]c(C)c1C(N)=O`: the melting point fell in the range of 221 to 223 °C. In turn, `Cc1ccc(-c2cc(-c3ccc(F)cc3)c(C(=O)NCc3ccc(C(=O)NO)cc3)[nH]2)cc1` registered a melting point of 213 to 215 °C. For the compound `COC1=C(OC)C(=O)C(CCCCCC[C@H]2CC[C@H](O)CC2)=C(C)C1=O`, the melting point fell in the range of 33.5 to 35.5 °C.

`CN(C)c1nc(C(=O)NCCO[N+](=O)[O-])cs1` returned a melting point of 94 to 95 °C. With `CCCCOc1ccc(-c2ccc3c(c2)C=C(C(=O)Nc2ccc(C(O)c4ccccn4)cc2)CCS3(=O)=O)cc1` (configuration not stated) the figure was 142 to 145 °C; with `COc1ccc(-c2nn3c(SC)nnc3c3ccccc23)cc1`, 218 to 220 °C. With `COC1=C(OC)C(=O)C2=C(CC(CCCCOc3ccc(C(=O)N(C)C)cc3)C2)C1=O` the figure was 80 to 83 °C. For `O=C(NCCOc1ccc(CC(Oc2ccc(Cl)cc2)C(=O)O)cc1)c1ccc(-c2ccccn2)cc1` (configuration not stated), the melting point was 155 to 156 °C. With `O=C(c1ccccc1)c1ccc2nc(-c3ccc[nH]3)[nH]c2c1` the figure was 128 to 133 °C; with `Fc1ccc(Cn2c(NC3CCN(CCNc4nc(-c5ccccc5)cs4)CC3)nc3ccccc32)cc1`, 176 °C; with `CC(C)(CO)Oc1ccc(CNc2ccc(Cl)cc2)cc1`, 84 to 91 °C.

`CC1(C)Oc2ccc([N+](=O)[O-])cc2C(C(N)=O)=C1O` displayed a melting point of 189 to 191 °C. With `CCc1cc(Oc2ccc(NC(=O)Nc3ccc(C)cc3)cc2)ncn1` the figure was 160 to 162 °C.

`NS(=O)(=O)c1cc(S(=O)(=O)N(N2CCCCC2)N2CCCCC2)c(Cl)cc1Cl` came in with a melting point of 170 °C. With `CNc1ncc(-c2ccc(C)cc2)c(-c2ccc(C)cc2)n1` the figure was 160 to 162 °C; with `COC(=O)c1cnc(C(=O)OC)c(SCc2cccc(C(F)(F)F)c2)c1`, 102 to 106 °C. With `O=C(NC1CCN(CCCOC(=O)c2ccccc2)CC1)c1ccccc1` the figure was 146 to 147 °C; with `O=S(=O)(CC(F)(F)F)c1nc2cc(Cl)c(Cl)cc2[nH]1`, 190 to 192 °C; with `CC(C)c1cccc(C(C)C)c1NC(=O)NCC1(O)CCc2ccccc21` (configuration not stated), 173 to 174 °C. With `CC(=O)NCCCC(=O)c1ccc(Cl)cc1CCC(=O)OCC(N)=O` the figure was 114 to 116 °C; with `CNC(=O)c1cc(-c2ccc(OC)c(F)c2)nn(CC2CC2)c1=O`, 140 to 141 °C; with `Nc1cccc(NC(=O)NC2N=C(c3ccccc3F)c3ccccc3N(CC(=O)N3CC4CCC(CC4)C3)C2=O)c1` (racemic), more than 250 °C.

Take `Cc1cc(C(=O)C(=O)O)c(O)cc1Oc1ccccc1`: the melting point fell in the range of 85 to 87 °C. To `O=C(Nc1ccc(Oc2ccnc(NCC3OCCO3)n2)c2ccccc12)c1cc(F)cc(N2CCOCC2)c1` belongs 122 to 124 °C; to `Cc1ccccc1-c1ccc(C(=O)N2Cc3ccc(C(=O)NCc4ccccc4C(F)(F)F)n3Cc3ccccc32)cc1C`, 126 to 128 °C; to `CC(C)n1nc(-c2nc(-n3cccc3)c(N)nc2-c2ccccc2)ccc1=O`, 132 to 136 °C. To `Cc1noc(C)c1CON1C(=O)c2ccccc2C1=O` belongs 144 to 146 °C; to `CCCCCC(=O)Nc1ccc2ccn(Cc3ccc(C#N)cc3OC)c2c1`, 136 to 138 °C; to `COc1cc(/C=C/[N+](=O)[O-])cc(OC)c1`, 132 °C. To `COc1cc(OCC(=O)N2CCOCC2)c(C=CC(=O)c2ccc(C(=O)O)cc2)cc1-c1cccs1` belongs 231 to 233 °C; to `O=C(O)CSc1nc(Cl)cc(NCc2ccc(Cl)c(Cl)c2)n1`, 64 to 69 °C. The compound `Nc1c(-c2cc(Cl)ccc2O)c2cc(Cl)c(C(F)(F)F)cc2[nH]c1=O` had a melting point of 245 to 246 °C. To `CCc1noc(-c2cn(-c3cccc(Oc4ccc([N+](=O)[O-])cc4)c3)cn2)n1` belongs 145 to 146 °C.
